The text below walks through data of US8129371B2, “Thienopyrimidine and pyrazolopyrimidine compounds and their use as mTOR kinase and PI3 kinase inhibitors” (Wyeth LLC, priority 2007, dated 2012).

Like-named read-outs stand apart in the source and are kept apart here.

For one test, the system named is prostate line LNCap. The experiment in a line: In vitro cell culture growth assay (MTS), LNCap. It counts as cell-based. Particulars: Homo sapiens, LNCaP, 72 h, LNCap cells, three days after drug treatment. The essentials: (§1)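 Following a one-day attachment period, cells received inhibitors for 3 days. MTS metabolism by viable cells was quantified at 490 nm absorbance and converted to percent of same-plate vehicle control growth.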

Test [1] addresses T1, PI3K (Homo sapiens, UniProt P48736).
T1 construct: PI3 Kinase γ IC50; other: PI3 Kinase γ; other: PI3 Kinase γ isoform, fluorescence polarization
Description: Fluorescence polarization assay for PI3K. It counts as biochemical. The following applies: read-out: PI3 Kinase γ IC50. The essentials: (§2)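 Fluorescence-polarization competition readout: after 30–60 min of PIP2/ATP turnover in 1% DMSO, a stop mix with GST-GRP (70 nM) and red probe (10 nM) was added.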

In test [2] the target is T2, PI3K (Homo sapiens, UniProt P42336).
T2 construct: PI3 Kinase α IC50; other: PI3 Kinase α; other: PI3 Kinase α isoform, fluorescence polarization
T2 sequence (P42336 whole entry, canonical isoform): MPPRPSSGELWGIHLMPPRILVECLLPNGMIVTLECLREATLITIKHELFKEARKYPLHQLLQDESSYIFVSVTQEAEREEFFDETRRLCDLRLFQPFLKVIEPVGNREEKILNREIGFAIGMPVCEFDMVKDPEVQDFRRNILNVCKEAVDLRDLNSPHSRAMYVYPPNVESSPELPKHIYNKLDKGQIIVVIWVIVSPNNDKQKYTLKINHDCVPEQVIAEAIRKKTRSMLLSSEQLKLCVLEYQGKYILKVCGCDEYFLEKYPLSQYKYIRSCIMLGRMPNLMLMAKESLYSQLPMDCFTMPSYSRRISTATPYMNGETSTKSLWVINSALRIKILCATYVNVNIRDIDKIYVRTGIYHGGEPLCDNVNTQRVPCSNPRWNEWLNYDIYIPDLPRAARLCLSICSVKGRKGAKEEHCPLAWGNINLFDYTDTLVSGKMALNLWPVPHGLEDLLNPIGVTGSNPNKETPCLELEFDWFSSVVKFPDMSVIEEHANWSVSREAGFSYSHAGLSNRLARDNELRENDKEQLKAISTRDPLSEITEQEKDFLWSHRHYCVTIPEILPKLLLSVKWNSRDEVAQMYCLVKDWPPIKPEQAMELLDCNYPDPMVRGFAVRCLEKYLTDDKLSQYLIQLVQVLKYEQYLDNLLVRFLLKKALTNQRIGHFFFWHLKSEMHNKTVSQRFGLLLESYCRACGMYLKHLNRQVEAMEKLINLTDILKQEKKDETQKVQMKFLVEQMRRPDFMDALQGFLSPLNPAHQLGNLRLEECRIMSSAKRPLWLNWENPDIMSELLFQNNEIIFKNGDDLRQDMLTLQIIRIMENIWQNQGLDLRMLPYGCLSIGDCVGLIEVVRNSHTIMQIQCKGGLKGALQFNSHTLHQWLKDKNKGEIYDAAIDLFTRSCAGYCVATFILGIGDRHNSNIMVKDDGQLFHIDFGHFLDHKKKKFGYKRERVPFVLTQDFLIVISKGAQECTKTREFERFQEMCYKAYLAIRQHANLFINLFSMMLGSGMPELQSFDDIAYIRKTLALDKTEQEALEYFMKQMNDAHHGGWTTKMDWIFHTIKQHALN
Description: Fluorescence polarization assay for PI3K. It counts as biochemical. Particulars: read-out: PI3 Kinase α IC50. The procedure, abridged:
as §2

The next test concerns breast line MDA468. The experiment in a line: In vitro cell culture growth assay (MTS), MDA468. It counts as cell-based. The following applies: Homo sapiens, 72 h, MDA468 cells, three days after drug treatment. The procedure, abridged:
as §1

The target of a further test is T3, Human mTOR (FLAG-TOR) (Homo sapiens, UniProt P42345).
T3 construct: FLAG
Description: Human mTOR kinase assay with purified enzyme, DELFIA format. It counts as biochemical. The essentials:
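DELFIA readout: Eu-anti-P(T389)-S6K antibody (40 ng/mL, 1 h) on captured His6-S6K from the stopped reaction. Kinase step used purified FLAG-tagged human mTOR with test compound in HEPES (pH 7.4)/MnCl2/DTT buffer, 2 h at room temperature (linear 1–6 h), terminated by EDTA/EGTA.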

Where [3] appears, read: PI3 Kinase γ isoform, fluorescence polarization.
Where [4] appears, read: PI3 Kinase α isoform, fluorescence polarization.
Where [5] appears, read: purified human mTOR enzyme, DELFIA format.

T1 sequence (P48736 whole entry, canonical isoform): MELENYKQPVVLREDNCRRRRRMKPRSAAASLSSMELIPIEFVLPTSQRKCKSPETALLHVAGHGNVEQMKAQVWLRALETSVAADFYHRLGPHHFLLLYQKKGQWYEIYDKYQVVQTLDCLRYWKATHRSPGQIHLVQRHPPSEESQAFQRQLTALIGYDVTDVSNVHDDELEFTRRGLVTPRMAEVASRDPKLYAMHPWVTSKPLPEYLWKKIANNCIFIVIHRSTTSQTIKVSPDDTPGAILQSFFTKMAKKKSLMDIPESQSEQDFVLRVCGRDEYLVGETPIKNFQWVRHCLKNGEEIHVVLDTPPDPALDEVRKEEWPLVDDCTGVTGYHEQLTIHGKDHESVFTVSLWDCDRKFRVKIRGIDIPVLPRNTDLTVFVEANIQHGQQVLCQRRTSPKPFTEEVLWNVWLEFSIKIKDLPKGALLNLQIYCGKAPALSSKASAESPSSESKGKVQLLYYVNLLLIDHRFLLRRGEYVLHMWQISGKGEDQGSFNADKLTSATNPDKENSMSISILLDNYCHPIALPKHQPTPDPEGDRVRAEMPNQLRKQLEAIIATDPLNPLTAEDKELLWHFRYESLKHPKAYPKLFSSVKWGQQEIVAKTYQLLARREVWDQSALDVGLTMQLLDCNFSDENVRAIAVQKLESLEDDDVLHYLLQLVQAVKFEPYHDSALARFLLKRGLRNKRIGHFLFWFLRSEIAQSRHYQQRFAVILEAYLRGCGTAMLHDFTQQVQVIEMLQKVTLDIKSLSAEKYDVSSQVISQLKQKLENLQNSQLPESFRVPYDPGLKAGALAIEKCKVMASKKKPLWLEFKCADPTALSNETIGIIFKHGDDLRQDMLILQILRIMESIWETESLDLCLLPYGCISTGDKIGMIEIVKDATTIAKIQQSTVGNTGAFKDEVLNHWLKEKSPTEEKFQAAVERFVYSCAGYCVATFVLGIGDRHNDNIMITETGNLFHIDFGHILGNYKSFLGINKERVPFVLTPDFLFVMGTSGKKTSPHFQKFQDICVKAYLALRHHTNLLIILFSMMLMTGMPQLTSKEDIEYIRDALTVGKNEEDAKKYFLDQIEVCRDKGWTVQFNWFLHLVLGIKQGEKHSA

As to `CN1CCN(c2ccc(NC(=O)Nc3ccc(-c4nc(N5CC6CCC(C5)O6)c5cnn(C)c5n4)cc3)cn2)CC1` [Example 235, 1-{4-[1-methyl-4-(8-oxa-3-azabicyclo[3.2.1]oct-3-yl)-1H-pyrazolo[3,4-d]pyrimidin-6-yl]phenyl}-3-[6-(4-methylpiperazin-1-yl)pyridin-3-yl]urea], the IC50 in the test with prostate line LNCap is 3 nM; at PI3K [1] (PI3 Kinase γ), 1060 nM; on PI3K [2] (PI3 Kinase α), 187 nM; in the test on breast line MDA468, 68 nM; at Human mTOR (FLAG-TOR) it was 0.625 nM.
As for `CC(=O)N1CC2CN(c3nc(-c4ccc(NC(=O)Nc5ccncc5)cc4)nc4c3cnn4CC(F)(F)F)CC(C1)O2` [Example 339, 1-{4-[4-(7-acetyl-9-oxa-3,7-diazabicyclo[3.3.1]non-3-yl)-1-(2,2,2-trifluoroethyl)-1H-pyrazolo[3,4-d]pyrimidin-6-yl]phenyl}-3-pyridin-4-ylurea], the half-inhibitory concentration (IC50) in the test on prostate line LNCap is above 60000 nM; at PI3K [1] (setting [3]) it was above 10000 nM; at PI3K [2] (setting [4]), 9420 nM; in the test with breast line MDA468, above 60000 nM; against Human mTOR (FLAG-TOR) (setting [5]), above 6330 nM.
With `CC(C)(C)OC(=O)N1CCC(n2ncc3c(N4CC5CCC(C4)O5)nc(-c4ccc(NC(=O)NC5CC5)cc4)nc32)CC1` [Example 22, tert-butyl 4-[6-{4-[(cyclopropylcarbamoyl)amino]phenyl}-4-(8-oxa-3-azabicyclo[3.2.1]oct-3-yl)-1H-pyrazolo[3,4-d]pyrimidin-1-yl]piperidine-1-carboxylate], the IC50 in the test with prostate line LNCap is 27 nM; on PI3K [1] (PI3 Kinase γ), above 10000 nM; on PI3K [2] (PI3 Kinase α), 3850 nM; with breast line MDA468, 150 nM; against Human mTOR (FLAG-TOR), 0.56 nM.
On the same counts, the results for `COC(=O)N1CCC(n2ncc3c(N4CC5CCC(C4)O5)nc(-c4ccc(NC(=O)OCCN)cc4)nc32)CC1` [Example 114, methyl 4-[6-(4-{[(2-aminoethoxy)carbonyl]amino}phenyl)-4-(8-oxa-3-azabicyclo[3.2.1]oct-3-yl)-1H-pyrazolo[3,4-d]pyrimidin-1-yl]piperidine-1-carboxylate] are 4000 nM, 7480 nM, 1430 nM, 6000 nM and 36.5 nM.
With `Cn1ncc2c(N3CC4CCC(C3)O4)nc(-c3ccc(NC(=O)Nc4cccnc4)cc3)nc21` [Example 56, 1-{4-[1-methyl-4-(8-oxa-3-azabicyclo[3.2.1]oct-3-yl)-1H-pyrazolo[3,4-d]pyrimidin-6-yl]phenyl}-3-pyridin-3-ylurea], the IC50 with prostate line LNCap stood at 0.7 nM; on PI3K [1] (PI3 Kinase γ) it was 579 nM; on PI3K [2] (PI3 Kinase α), 227 nM; in the test on breast line MDA468, 5 nM; against Human mTOR (FLAG-TOR), 0.27 nM.
On to `O=C(Nc1ccc(-c2nc(N3C[C@H]4C[C@@H]3CO4)c3cnn(CC(F)(F)F)c3n2)cc1)Nc1cccnc1` [Example 344, 1-(4-{4-[(1R,4R)-2-oxa-5-azabicyclo[2.2.1]hept-5-yl]-1-(2,2,2-trifluoroethyl)-1H-pyrazolo[3,4-d]pyrimidin-6-yl}phenyl)-3-pyridin-3-ylurea], for which the IC50 in the test on prostate line LNCap was 660 nM; on PI3K [1] (setting [3]) it was above 10000 nM; on PI3K [2] (setting [4]) it was 1940 nM; with breast line MDA468 it was 1000 nM; on Human mTOR (FLAG-TOR) (setting [5]) it was 17 nM.
As to `Cn1ncc2c(N3CC4CCC(C3)O4)nc(-c3ccc(NC(=O)Nc4ccc(N5CCOCC5)cc4)cc3)nc21` [Example 238, 1-{4-[1-methyl-4-(8-oxa-3-azabicyclo[3.2.1]oct-3-yl)-1H-pyrazolo[3,4-d]pyrimidin-6-yl]phenyl}-3-(4-morpholin-4-ylphenyl)urea], the IC50 was 1 nM in the test on prostate line LNCap; above 10000 nM on PI3K [1] (PI3 Kinase γ); 371 nM at PI3K [2] (PI3 Kinase α); 8 nM in the test on breast line MDA468; 0.245 nM at Human mTOR (FLAG-TOR).
For the compound `O=C(Nc1ccc(-c2nc(N3CC4CCC(C3)O4)c3cnn([C@H]4CC[C@@H](O)CC4)c3n2)cc1)NC1CC1` (relative stereo) [Example 402, 1-cyclopropyl-3-{4-[1-(cis-4-hydroxycyclohexyl)-4-(8-oxa-3-azabicyclo[3.2.1]oct-3-yl)-1H-pyrazolo[3,4-d]pyrimidin-6-yl]phenyl}urea], the IC50 in the test on prostate line LNCap was 2 nM; at PI3K [1] (setting [3]), above 10000 nM; at PI3K [2] (setting [4]) it was 2970 nM; in the test with breast line MDA468, 40 nM; at Human mTOR (FLAG-TOR) (setting [5]) it was 0.41 nM.
Consider `O=C(Nc1ccc(-c2nc(N3CC4CCC(C3)O4)c3cnn(C4CCN(Cc5ccccc5)CC4)c3n2)cc1)OCCO` [Example 264, 2-hydroxyethyl {4-[1-(1-benzylpiperidin-4-yl)-4-(8-oxa-3-azabicyclo[3.2.1]oct-3-yl)-1H-pyrazolo[3,4-d]pyrimidin-6-yl]phenyl}carbamate], for which the IC50 in the test on prostate line LNCap came to 38 nM; on PI3K [1] (PI3 Kinase γ), 8840 nM; on PI3K [2] (PI3 Kinase α), 1690 nM; in the test on breast line MDA468, 700 nM; on Human mTOR (FLAG-TOR), 2.9 nM.
For `O=C(Nc1ccc(CO)cc1)Nc1ccc(-c2nc(N3CC4CCC(C3)O4)c3cnn(CC(F)(F)F)c3n2)cc1` [Example 253, 1-[4-(hydroxymethyl)phenyl]-3-{4-[4-(8-oxa-3-azabicyclo[3.2.1]oct-3-yl)-1-(2,2,2-trifluoroethyl)-1H-pyrazolo[3,4-d]pyrimidin-6-yl]phenyl}urea], the half-inhibitory concentration (IC50) with prostate line LNCap was 1 nM; at PI3K [1] (PI3 Kinase γ), 780 nM; on PI3K [2] (PI3 Kinase α) it was 56 nM; with breast line MDA468, below 1 nM; against Human mTOR (FLAG-TOR), 0.15 nM.
The corresponding values for `CCn1ncc2c(N3CC4CCC(C3)O4)nc(-c3ccc(NC(=O)NCC(=O)N4CCN(C)CC4)cc3)nc21` [Example 276, 1-{4-[1-ethyl-4-(8-oxa-3-azabicyclo[3.2.1]oct-3-yl)-1H-pyrazolo[3,4-d]pyrimidin-6-yl]phenyl}-3-[2-(4-methylpiperazin-1-yl)-2-oxoethyl]urea] are 7500 nM, 9000 nM, 3980 nM, 30000 nM and 93 nM.
As for `CCn1ncc2c(N3CC4CCC(C3)O4)nc(-c3ccc(NC(=O)Nc4ccc(C)cc4)cc3)nc21` [Example 189, 1-{4-[1-ethyl-4-(8-oxa-3-azabicyclo[3.2.1]oct-3-yl)-1H-pyrazolo[3,4-d]pyrimidin-6-yl]phenyl}-3-(4-methylphenyl)urea], the IC50 in the test with prostate line LNCap is 5 nM; on PI3K [1] (PI3 Kinase γ), 11000 nM; on PI3K [2] (PI3 Kinase α) it was 849 nM; with breast line MDA468, 20 nM; at Human mTOR (FLAG-TOR) it was 0.885 nM.
In the case of `COCC(COC)n1ncc2c(N3CC4CCC(C3)O4)nc(-c3ccc(NC(=O)OCCO)cc3)nc21` [Example 323, 2-hydroxyethyl (4-{1-[2-methoxy-1-(methoxymethyl)ethyl]-4-(8-oxa-3-azabicyclo[3.2.1]oct-3-yl)-1H-pyrazolo[3,4-d]pyrimidin-6-yl}phenyl)carbamate], the IC50 was 470 nM with prostate line LNCap; above 10000 nM at PI3K [1] (setting [3]); 6620 nM at PI3K [2] (setting [4]); 2000 nM in the test on breast line MDA468; 16.5 nM against Human mTOR (FLAG-TOR) (setting [5]).
Regarding `O=C(Nc1ccc(-c2nc(N3CC4CCC(C3)O4)c3cnn(CCO)c3n2)cc1)Nc1ccc(N2CCOCC2)cc1` [Example 204, 1-{4-[1-(2-hydroxyethyl)-4-(8-oxa-3-azabicyclo[3.2.1]oct-3-yl)-1H-pyrazolo[3,4-d]pyrimidin-6-yl]phenyl}-3-(4-morpholin-4-ylphenyl)urea], the concentration for half-maximal inhibition (IC50) in the test on prostate line LNCap amounted to 6 nM; at PI3K [1] (PI3 Kinase γ) it was 11300 nM; on PI3K [2] (PI3 Kinase α) it was 274 nM; in the test with breast line MDA468, 35 nM; at Human mTOR (FLAG-TOR), 0.49 nM.
